Results published in patent publication US20240067655A1 (NEURON23, INC., priority 2020, published 2024).

Key:
[1] = target: T1, G2019S human LRRK2, catalytic site (Homo sapiens, UniProt Q5S007, G2019S); assay: TR-FRET LanthaScreen Eu Kinase Binding Assay, LRRK2 G2019S (Example 72); settings: Example 72 text; one statement for LRRK2 (Wt) and LRRK2 (G2019); read-out: IC50, Inhibitory Activity Toward LRRK2 (G2019)
T1 construct: G2019S human LRRK2, catalytic site; purchased ThermoFisher/USA
Method: (§1) The compounds in Tables 5-6 were tested for their inhibitory effect on a set of kinases according to the following procedures.
(§2) The basic protocol for TR-FRET LanthaScreen Eu Kinase Binding Assay inhibitor studies were performed as follows. LanthaScreen Kinase Binding Assays (ThermoFisher/USA) to evaluate inhibitors were performed by addition of 5 μl of test compound in corresponding DMSO dilutions/5 μl of kinase/antibody mixture, 5 μl of tracer into 384 well small volume plates. After incubation for 1 hour at room temperature, plates were read. Data analysis of emission ratios was according to LanthaScreen Eu Kinase Binding Assay protocol.
(§3) Kinase and assay components were adjusted to final concentrations according to the kit protocol. For LRRK2: 5 nM wt human LRRK2, catalytic site, or G2019S human LRRK2, catalytic site (ThermoFisher/USA), 2 nM Eu-Anti-GST Antibody, 10 nM Kinase Tracer 236 in 1× Kinase Buffer A. For NUAK1: 8 nM wt human NUAK1, full length (ThermoFisher/USA), 2 nM Eu-Anti-His Antibody, 5 nM Kinase Tracer 236 in 1× Kinase Buffer A.

[2] = target: T2, wt human LRRK2, catalytic site (Homo sapiens, UniProt Q5S007); assay: TR-FRET LanthaScreen Eu Kinase Binding Assay, LRRK2 wt (Example 72); settings: Example 72 text; one statement for LRRK2 (Wt) and LRRK2 (G2019); read-out: IC50, Inhibitory Activity Toward LRRK2 (Wt)
T2 construct: wt human LRRK2, catalytic site; purchased ThermoFisher/USA
T2 sequence (Q5S007 1879-2138 limits assumed): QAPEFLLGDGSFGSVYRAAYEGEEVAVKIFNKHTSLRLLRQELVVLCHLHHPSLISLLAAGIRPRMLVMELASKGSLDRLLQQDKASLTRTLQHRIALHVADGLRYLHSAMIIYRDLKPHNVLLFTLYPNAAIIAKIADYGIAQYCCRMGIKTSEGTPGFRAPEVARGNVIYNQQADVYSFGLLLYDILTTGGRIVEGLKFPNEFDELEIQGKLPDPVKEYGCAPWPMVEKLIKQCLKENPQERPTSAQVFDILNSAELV
Method: as §1, §2, §3

[3] = target: T3, wt human NUAK1, full length (Homo sapiens, UniProt O60285); assay: TR-FRET LanthaScreen Eu Kinase Binding Assay, NUAK1 (Example 72); settings: Example 72 text; read-out: IC50, Inhibitory Activity Toward NUAK1
T3 construct: 8 nM wt human NUAK1, full length (ThermoFisher/USA); purchased ThermoFisher/USA
T3 sequence (O60285 1-661): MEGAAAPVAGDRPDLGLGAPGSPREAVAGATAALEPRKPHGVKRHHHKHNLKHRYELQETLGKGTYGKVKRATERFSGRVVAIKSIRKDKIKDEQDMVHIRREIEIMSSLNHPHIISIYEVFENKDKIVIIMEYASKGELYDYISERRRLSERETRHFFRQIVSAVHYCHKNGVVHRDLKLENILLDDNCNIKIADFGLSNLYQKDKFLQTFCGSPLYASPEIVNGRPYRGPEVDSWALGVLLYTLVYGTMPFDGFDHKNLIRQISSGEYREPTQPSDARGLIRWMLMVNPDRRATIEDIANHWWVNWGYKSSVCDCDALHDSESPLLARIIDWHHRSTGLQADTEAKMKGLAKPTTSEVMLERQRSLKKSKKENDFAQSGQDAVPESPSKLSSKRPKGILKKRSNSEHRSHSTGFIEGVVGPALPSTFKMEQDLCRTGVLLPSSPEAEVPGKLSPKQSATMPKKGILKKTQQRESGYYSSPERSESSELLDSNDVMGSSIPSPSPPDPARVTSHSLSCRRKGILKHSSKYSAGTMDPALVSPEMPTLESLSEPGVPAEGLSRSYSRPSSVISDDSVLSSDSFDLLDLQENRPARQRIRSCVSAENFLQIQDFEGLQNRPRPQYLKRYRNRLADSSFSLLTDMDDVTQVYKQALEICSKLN
Method: as §1, §2, §3

[4] = target: T2, wt human LRRK2, catalytic site; assay: TR-FRET LanthaScreen Tb Kinase Activity Assay (Example 71); format: biochemical; settings: compounds of Table 4, 38 uM ATP, method names only wt human LRRK2, read-out: IC50, Inhibitory Activity Toward LRRK2 (Wt) and LRRK2 (G2019)
Method: The compounds in Table 4 were tested for their inhibitory effect on LRRK2 kinases according to the following procedures.
The basic protocol for TR-FRET LanthaScreen Tb Kinase Activity Assay inhibitor studies were performed as follows. LanthaScreen Kinase Activity Assays (ThermoFisher/USA) to evaluate inhibitors were performed by addition of 100 nl of test compound in corresponding DMSO dilutions/5 μl of kinase/fluorescein-ERM(LRRKtide) peptide mixture, 5 μl of ATP into 384 well small volume plates. After incubation for 120 minutes at room temperature, the detection reagents containing Tb-anti-pLRRKtide antibody were added to monitor phosphrylation level of peptide. Then, after 60 min minutes incubation at room temperature plates were read in Envision. Data analysis of emission ratios was according to LanthaScreen Tb Kinase Activity Assay protocol.
Kinase and assay components were adjusted to final concentrations according to the kit protocol. For LRRK2: 2 nM wt human LRRK2, catalytic site, catalytic site (ThermoFisher/USA), 400 nM peptide, 38 uM ATP in 1× Kinase Buffer A.
Basic protocol for TR-FRET LanthaScreen Tb Kinase Activity Assay inhibitor studies involved two steps:
Enzymatic step: Addition of 100 nl of test compound in corresponding DMSO dilutions, 5 μl of kinase/substrate mixture, 5 μl of ATP into 384 well small volume plates. Incubation for 120 minutes at room temperature.
Detection step: Addition of 10 μl EDTA & antibody, read plate after 60 minutes. Data analysis of emission ratios according to KinEASE assay protocol.

T1 sequence (Q5S007 1879-2138 G2019S limits assumed): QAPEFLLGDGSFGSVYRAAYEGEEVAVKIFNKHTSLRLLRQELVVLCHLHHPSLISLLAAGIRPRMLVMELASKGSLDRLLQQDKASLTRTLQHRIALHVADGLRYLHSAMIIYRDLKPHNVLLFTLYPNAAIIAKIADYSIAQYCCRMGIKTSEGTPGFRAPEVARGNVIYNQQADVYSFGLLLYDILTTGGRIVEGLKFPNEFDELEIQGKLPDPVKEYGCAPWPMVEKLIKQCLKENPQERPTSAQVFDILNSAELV

Row | Structure (SMILES) | IC50 [1] | IC50 [2] | IC50 [3] | IC50 [4]
1 | Fc1cccc(F)c1C1=Nc2cn[nH]c2-c2cnn3c2N1CCCC3 [Compound 344, 10-(2,6-difluorophenyl)-6,7,8,9-tetrahydro-3H-2,3,5,5a,9a,11-hexaazadicyclopenta[b,kl]heptalene] | – | – | – | 10 to 100 nM
2 | Fc1cccc(Cl)c1C1=Nc2cn[nH]c2-c2cnn3c2N1CCC3 [Compound 341, 9-(2-chloro-6-fluorophenyl)-3,6,7,8-tetrahydro-2,3,5,5a,8a,10-hexaazabenzo[cd]cyclopenta[h]azulene] | – | – | – | < 10 nM
3 | Fc1cncc(F)c1C1=Nc2c(Cl)n[nH]c2-c2cnn3c2N1CCC3 [Compound 386, 1-chloro-9-(3,5-difluoropyridin-4-yl)-3,6,7,8-tetrahydro-2,3,5,5a,8a,10-hexaazabenzo[cd]cyclopenta[h]azulene] | – | – | – | 10 to 100 nM
4 | Fc1cccc(F)c1C1=Nc2cn[nH]c2-n2ncc3c2N1CCC3 [Compound 369, 9-(2,6-difluorophenyl)-3,6,7,8-tetrahydro-2,3,3b,4,8a,10-hexaazabenzo[cd]cyclopenta[h]azulene] | – | – | – | 100 to 1000 nM
5 | Cc1n[nH]c2c1N=C(c1c(F)cccc1F)N1CCCn3ncc-2c31 [Compound 370, 9-(2,6-difluorophenyl)-1-methyl-3,6,7,8-tetrahydro-2,3,5,5a,8a,10-hexaazabenzo[cd]cyclopenta[h]azulene] | – | – | – | < 10 nM
6 | Fc1cccc(F)c1C1=Nc2cn[nH]c2-c2cnn3c2N1CC1(CC1)C3 [Compound 377, 9-(2,6-difluorophenyl)-6,8-dihydro-3H-spiro[2,3,5,5a,8a,10-hexaazabenzo[cd]cyclopenta[h]azulene-7,1′-cyclopropane]] | – | – | – | 100 to 1000 nM
7 | Cc1n[nH]c2c1N=C(c1c(F)cccc1Cl)N1CCn3ncc-2c31 [Compound 395, 3-(2-chloro-6-fluorophenyl)-5-methyl-2,7-dihydro-1H-2a,4,6,7,9,9a-hexaazadicyclopenta[cd,f]azulene] | – | – | – | < 10 nM
8 | Cc1nc2c3n1CCCN3C(c1c(F)cccc1F)=Nc1cn[nH]c1-2 [Compound 352] | – | – | – | > 1000 nM
9 | Fc1cccc(F)c1C1=Nc2cn[nH]c2-c2cc(C(F)(F)F)cc3[nH]cc1c23 [Compound 401, 3-(2,6-difluorophenyl)-9-(trifluoromethyl)-1,7-dihydropyrazolo[3′,4′:6,7]azepino[3,4,5-cd]indole] | – | – | – | < 10 nM
10 | Clc1ccccc1C1=Nc2cn[nH]c2-c2cnn3c2N1CCCC3 [Compound 364, 10-(2-chlorophenyl)-6,7,8,9-tetrahydro-3H-2,3,5,5a,9a,11-hexaazadicyclopenta[b,kl]heptalene] | – | – | – | 100 to 1000 nM
11 | CC1CCN2C(c3c(F)cccc3F)=Nc3cn[nH]c3-c3cnn1c32 (stereo not drawn) [Compound 345, 9-(2,6-difluorophenyl)-6-methyl-3,6,7,8-tetrahydro-2,3,5,5a,8a,10-hexaazabenzo[cd]cyclopenta[h]azulene] | – | – | – | < 10 nM
12 | c1ccc(C2=Nc3cn[nH]c3-c3cnn4c3N2CCC4)cc1 [Compound 361, 8-phenyl-3,4,7,9,13,14-hexazatetracyclo[7.6.1.02,6.013,16]hexadeca-1(16),2(6),4,7,14-pentaene] | – | – | – | 10 to 100 nM
13 | Fc1cccc(F)c1C1=Nc2cn[nH]c2-c2cnn3c2N1CC3 [Compound 373, 3-(2,6-difluorophenyl)-2,7-dihydro-1H-2a,4,6,7,9,9a-hexaazadicyclopenta[cd,f]azulene] | – | – | – | < 10 nM
14 | Cc1nn2c3c1CCCN3C(c1c(F)cccc1F)=Nc1cn[nH]c1-2 [Compound 374, 8-(2,6-difluorophenyl)-14-methyl-1,3,4,7,9,15-hexazatetracyclo[7.6.1.02,6.013,16]hexadeca-2(6),4,7,13(16),14-pentaene] | – | – | – | 100 to 1000 nM
15 | C[C@@H]1CN2C(c3c(F)cccc3F)=Nc3cn[nH]c3-c3cnn(c32)C1 (single isomer, unassigned) [Compound 349] | – | – | – | < 10 nM
16 | CC1CN2C(c3c(F)cccc3F)=Nc3cn[nH]c3-c3cnn(c32)C1 (stereo not drawn) [Compound 348, 9-(2,6-difluorophenyl)-7-methyl-2,6,7,8-tetrahydro-2,3,5,5a,8a,10-hexaazabenzo[cd]cyclopenta[h]azulene] | – | – | – | < 10 nM

Now from value to compound:

Row | IC50 [1] | IC50 [2] | IC50 [3] | IC50 [4] | Structure (SMILES)
17 | 10 to 100 nM | 10 to 100 nM | – | – | CC(=O)n1cc2c3c(cccc31)-c1n[nH]cc1N=C2c1c(F)cccc1F [Compound 311, 1-(3-(2,6-difluorophenyl)pyrazolo[3′,4′:6,7]azepino[3,4,5-cd]indol-1(7H)-yl)ethan-1-one]
18 | < 10 nM | < 10 nM | – | – | Fc1cccc(F)c1C1=Nc2c[nH]nc2-c2cccc3cnn1c23 [Compound 302, 4-(2,6-difluorophenyl)-8H-pyrazolo[4′,3′:4,5][1,3]diazepino[6,7,1-hi]indazole]
19 | < 10 nM | < 10 nM | 10 to 100 nM | – | Cc1cn2c3c(cccc13)-c1n[nH]cc1N=C2c1c(F)cccc1F [Compound 313, 10-(2,6-difluorophenyl)-7-methyl-3H-pyrazolo[4′,3′:4,5][1,3]diazepino[6,7,1-hi]indole]
20 | 10 to 100 nM | 10 to 100 nM | 10 to 100 nM | – | Fc1cccc(Cl)c1C1=Nc2cn[nH]c2-c2cccc3cnn1c23 [Compound 306, 4-(2-chloro-6-fluorophenyl)-8H-pyrazolo[4′,3′:4,5][1,3]diazepino[6,7,1-hi]indazole]
21 | 10 to 100 nM | 10 to 100 nM | 10 to 100 nM | – | Fc1cccc(F)c1C1=Nc2cn[nH]c2-c2cccc3nnn1c23 [Compound 304, 3-(2,6-difluorophenyl)-7H-1,2,2a,4,6,7-hexaazabenzo[cd]cyclopenta[f]azulene]
22 | 10 to 100 nM | 10 to 100 nM | – | – | Fc1ccccc1C1=Nc2c[nH]nc2-c2cccc3cnn1c23 [Compound 316, 4-(2-fluorophenyl)-8H-pyrazolo[4′,3′:4,5][1,3]diazepino[6,7,1-hi]indazole]
23 | < 10 nM | < 10 nM | 10 to 100 nM | – | Fc1cccc(F)c1C1=Nc2cn[nH]c2-c2ccc(F)c3cnn1c23 [Compound 317, 4-(2,6-difluorophenyl)-11-fluoro-8H-pyrazolo[4′,3′:4,5][1,3]diazepino[6,7,1-hi]indazole]
24 | < 10 nM | < 10 nM | 10 to 100 nM | – | Fc1cccc(F)c1C1=Nc2c[nH]nc2-c2cccc3ncn1c23 [Compound 301, 3-(2,6-difluorophenyl)-7H-1,2a,4,6,7-pentaazabenzo[cd]cyclopenta[f]azulene]
25 | < 10 nM | < 10 nM | – | – | Clc1cccc(Cl)c1C1=Nc2c[nH]nc2-c2cccc3cnn1c23 [Compound 309, 4-(2,6-dichlorophenyl)-8H-pyrazolo[4′,3′:4,5][1,3]diazepino[6,7,1-hi]indazole]
